Literature values as cited in patent publication US9125936B2, “Ginger extract for the protection of stem cells” (Symrise AG, priority 2013, dated 2015).

Settings: water (20° dH) at 20° C.; solid active agent

solubility in water: less than 5 g/L
Compound: Nc1nc2c(ncn2COCCO)c(=O)[nH]1 [Acyclovir, 2-Amino-1,9-dihydro-9-((2-hydroxyethoxy)methyl)-6H-Purin-6-one]
